Values quoted from earlier work in patent US20090012088A1 (priority 2005, published 2009).

Key:
PARG [1] = biological target: PARG (Bos taurus, UniProt O02776); details: cited from earlier work
[2] = tested on: rat model of focal cerebral ischemia; details: cited from earlier work
PARG [3] = biological target: T1, PARG (Homo sapiens, UniProt Q86W56); details: cited from earlier work
34I cells = details: cited from earlier work
PARG [4] = biological target: T1, PARG; details: tannins; read-out: in vitro IC50 for PARG; cited from earlier work
[5] = tested on: human neuroblastoma cells; details: cited from earlier work

T1 sequence (Q86W56 whole entry, species assumed): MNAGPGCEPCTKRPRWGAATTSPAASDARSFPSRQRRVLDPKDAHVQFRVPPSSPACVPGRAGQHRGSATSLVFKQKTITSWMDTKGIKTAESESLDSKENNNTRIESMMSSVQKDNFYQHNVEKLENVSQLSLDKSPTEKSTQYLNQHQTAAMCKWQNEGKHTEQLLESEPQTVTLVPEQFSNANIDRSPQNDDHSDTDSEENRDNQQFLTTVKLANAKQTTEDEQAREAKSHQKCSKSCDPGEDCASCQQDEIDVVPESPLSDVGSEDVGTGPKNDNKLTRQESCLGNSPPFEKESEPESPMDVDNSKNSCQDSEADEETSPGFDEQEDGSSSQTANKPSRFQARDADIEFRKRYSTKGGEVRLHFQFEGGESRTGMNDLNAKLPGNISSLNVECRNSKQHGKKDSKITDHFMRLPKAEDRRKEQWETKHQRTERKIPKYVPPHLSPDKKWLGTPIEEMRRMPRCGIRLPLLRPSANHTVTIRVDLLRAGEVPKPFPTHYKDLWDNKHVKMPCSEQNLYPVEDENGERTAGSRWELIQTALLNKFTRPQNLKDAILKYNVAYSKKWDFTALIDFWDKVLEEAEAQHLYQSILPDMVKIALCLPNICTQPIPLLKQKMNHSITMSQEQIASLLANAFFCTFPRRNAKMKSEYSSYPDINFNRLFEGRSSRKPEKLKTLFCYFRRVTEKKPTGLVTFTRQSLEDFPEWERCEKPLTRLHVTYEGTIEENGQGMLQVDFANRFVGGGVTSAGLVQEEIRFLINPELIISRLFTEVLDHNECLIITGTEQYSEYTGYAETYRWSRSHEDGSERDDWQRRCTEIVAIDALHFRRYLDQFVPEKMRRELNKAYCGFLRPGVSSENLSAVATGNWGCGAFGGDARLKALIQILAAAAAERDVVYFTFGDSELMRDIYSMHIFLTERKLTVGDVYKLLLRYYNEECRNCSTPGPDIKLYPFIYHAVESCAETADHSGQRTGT
Chain of PARG (Bos taurus, UniProt O02776) (O02776 whole entry): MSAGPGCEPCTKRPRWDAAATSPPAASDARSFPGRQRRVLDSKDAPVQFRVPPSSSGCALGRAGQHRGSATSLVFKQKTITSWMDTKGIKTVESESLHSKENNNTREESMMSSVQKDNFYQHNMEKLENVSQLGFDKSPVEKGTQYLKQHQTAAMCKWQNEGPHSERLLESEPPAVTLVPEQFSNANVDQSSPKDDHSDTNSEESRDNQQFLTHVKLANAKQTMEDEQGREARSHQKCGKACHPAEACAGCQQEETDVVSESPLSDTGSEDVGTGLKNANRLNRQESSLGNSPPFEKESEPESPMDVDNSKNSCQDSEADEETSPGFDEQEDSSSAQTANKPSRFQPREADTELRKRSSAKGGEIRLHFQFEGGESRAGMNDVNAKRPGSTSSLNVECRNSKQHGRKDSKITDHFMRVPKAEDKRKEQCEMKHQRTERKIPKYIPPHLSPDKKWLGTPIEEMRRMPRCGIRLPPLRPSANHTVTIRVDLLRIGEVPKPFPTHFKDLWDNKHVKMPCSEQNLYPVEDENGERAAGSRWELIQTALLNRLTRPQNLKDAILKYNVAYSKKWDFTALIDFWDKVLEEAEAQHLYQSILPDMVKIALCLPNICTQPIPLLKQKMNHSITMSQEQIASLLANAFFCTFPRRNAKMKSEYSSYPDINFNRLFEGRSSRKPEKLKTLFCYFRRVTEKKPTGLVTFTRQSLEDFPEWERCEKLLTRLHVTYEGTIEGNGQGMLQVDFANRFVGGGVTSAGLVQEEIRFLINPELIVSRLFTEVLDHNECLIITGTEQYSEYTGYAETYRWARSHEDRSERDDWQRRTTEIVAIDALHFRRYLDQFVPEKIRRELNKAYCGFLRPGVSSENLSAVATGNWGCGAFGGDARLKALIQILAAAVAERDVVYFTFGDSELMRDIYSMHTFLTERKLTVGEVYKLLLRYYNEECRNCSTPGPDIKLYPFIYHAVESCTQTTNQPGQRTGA

## Nc1ncnc2c1ncn2[C@@H]1O[C@H](COP(=O)(O)OP(=O)(O)OC[C@H]2OC(O)[C@H](O)[C@@H]2O)[C@@H](O)[C@H]1O (stereo partly shown) [ADP-ribose]
PARG [1]; substrate analogues, FIG. 9
  IC50: 120 µM

## O=C(NCCCc1ccccc1)c1ccc2c(c1)C(=O)c1cc(C(=O)NCCCc3ccccc3)ccc1-2 [GPI 16552, 2,7-Bis[N-(3-phenyl-propyl)carbamoyl]-9-Oxo-9H-fluorene]
[2]; 30-minute pre-ischemia or 1- or 2-hour post-ischemia treatment
  Reduction of total infarct volume: 47-53%
[2]; rat, in vivo
  Protection in cortical areas: 43-59%
  Protection in subcortical areas: 28-40%

## CCC(C)CC1CCC(O)(C(C)(O)C(=O)NC2C(=O)N3NCCCC3C(=O)N(O)C(C)C(=O)NCC(=O)N3NCCCC3C(=O)N(O)C(C)C(=O)OC2C(C)C)OC1C (stereo not shown) [PD 124,966]
PARG [3]
  IC50 for PARG: 40 µg/mL

## O=C(OC[C@H]1O[C@@H](OC(=O)c2cc(O)c(O)c(O)c2)[C@@H]2OC(=O)c3cc(O)c(O)c(O)c3-c3c(cc(O)c(O)c3O)C(=O)O[C@H]2[C@@H]1OC(=O)c1cc(O)c(O)c(O)c1Oc1cc2c(c(O)c1O)-c1c(cc(O)c(O)c1O)C(=O)O[C@H]1[C@@H]3OC(=O)c4cc(Oc5c(C(=O)O[C@H]6[C@@H]7OC(=O)c8cc(O)c(O)c(O)c8-c8c(cc(O)c(O)c8O)C(=O)O[C@H]7[C@H](OC(=O)c7cc(O)c(O)c(O)c7)O[C@@H]6COC(=O)c6cc(O)c(O)c(O)c6)cc(O)c(O)c5O)c(O)c(O)c4-c4c(cc(O)c(O)c4O)C(=O)O[C@H]3[C@H](OC(=O)c3cc(O)c(O)c(O)c3)O[C@@H]1COC2=O)c1cc(O)c(O)c(O)c1 [nobotanin E]
34I cells
  Inhibition of PAR catabolism in intact cells: little inhibitory effect

## O=C(OCC1OC(OC(=O)c2cc(O)c(O)c(O)c2)C2OC(=O)c3cc(O)c(O)c(O)c3-c3c(cc(O)c(O)c3O)C(=O)OC2C1OC(=O)c1cc(O)c(O)c(O)c1Oc1cc2c(c(O)c1O)-c1c(cc(O)c(O)c1O)C(=O)OC1C(COC2=O)OC(OC(=O)c2cc(O)c(O)c(O)c2)C2OC(=O)c3cc(O)c(O)c(O)c3-c3c(cc(Oc4c(C(=O)OC5C(COC(=O)c6cc(O)c(O)c(O)c6)OC(OC(=O)c6cc(O)c(O)c(O)c6)C6OC(=O)c7cc(O)c(O)c(O)c7-c7c(cc(Oc8c(C(=O)OC9OC%10COC(=O)c%11cc(O)c(O)c(O)c%11-c%11c(cc(O)c(O)c%11O)C(=O)OC%10C%10OC(=O)c%11cc(O)c(O)c(O)c%11-c%11c(cc(O)c(O)c%11O)C(=O)OC9%10)cc(O)c(O)c8O)c(O)c7O)C(=O)OC56)cc(O)c(O)c4O)c(O)c3O)C(=O)OC12)c1cc(O)c(O)c(O)c1 (stereo not shown) [nobotanin K]
PARG [4]
  IC50: 0.44 µM
34I cells
  Inhibition of PAR catabolism in intact cells: little inhibitory effect

## C=CCN1CCc2nc(N)sc2CC1 [talipexole]
[5]
  Concentration required for protection: 1 mM

## adenosine diphosphate (hydroxymethyl)pyrrolidinediol [ADP-HPD]
PARG [1]
  IC50 lower than that of ADP-ribose: 1000 fold

## nobotanin B
PARG [4]
  IC50: 4.8 µM
34I cells
  Inhibition of PAR catabolism in intact cells: concentration-dependent inhibition of PAR catabolism

## pargamicin
PARG [3]
  IC50 for PARG: 28 µg/mL
